Molecules are shown by their SMILES. Values joined by “and” are separate entries in the source; they are usually repeats but may differ in a detail not shown here. Equal entries are not always repeated. Where two headings read alike, the source gives them in different places.

Data set [1] concerns NO formation. The settings on record: oral arginine, cited from earlier work.
The conditions of data set [2]: children with VOC; cited from earlier work.
The subject of data set [3] is NO production. The settings on record: acute arginase-induced arginine deficiency; cited from earlier work.
A short description of data set [4]: Pharmacokinetics of intravenous bolus citrulline in patients with sickle cell disease. In kind it is in vivo, human. The settings on record: for clearance: iv. As to the method: (§1) Background: Hemolysis associated nitric oxide (NO) depletion plays a central role in the pathogenesis of vaso-occlusion in sickle cell disease (SCD). Citrulline is an effective NO booster, even during conditions of inflammation and acute arginase-induced arginine deficiency, characteristic of SCD.
(§2) Methods: Each cohort of participants received an intravenous bolus of 20 mg/kg of citrulline over five minutes with dose increments of 10 mg/kg until a target plasma citrulline level of 80 to 100 μmol/L. FIG. 1. Plasma samples were collected at certain time points for pharmacokinetic studies. Adverse events were followed according to the NCI Common Terminology Criteria for Adverse Events (CTCAE).

Data set [5] can be described thus: Safety / adverse events (NCI CTCAE) of intravenous citrulline in patients with sickle cell disease. The class given is in vivo, human. As to the method: as §1, §2
The nature of data set [6]: Plasma arginine level after intravenous bolus citrulline in patients with sickle cell disease. In kind it is in vivo, human. The settings on record: within one hour of bolus intravenous citrulline 20 mg/kg; all subjects. As to the method: as §2
Data set [7] can be described thus: Oral citrulline in ICU patients: reaching target citrulline level. The class given is in vivo, human. The settings on record: administered orally in an ICU. The source says:
Oral administration of citrulline obligates the citrulline to pass through the gut and then the liver which removes the citrulline. This is due to the absorption of the citrulline from the gut and transport directly to the liver by the hepatic portal vein in the first pass through the patient's system. […] This would require multiple dosing regimen to achieve a therapeutic plasma level of citrulline. Thus, it is preferable for citrulline therapy to administer the active agent in a manner which bypasses the gut.

For data set [8] the following is noted: oral twice daily, approximately 0.1 g/kg daily, steady state, cited from earlier work.
For data set [9] the following is noted: normal volunteers; cited from earlier work.
For data set [10] the following is noted: cited from earlier work.
For data set [11] the following is noted: inhaled, versus placebo; cited from earlier work.
[12] abbreviates: Average of patients 1-4, 20 mg/kg intravenous bolus.
Where [13] appears, read: bolus intravenous citrulline in patients with SCD.
The mark [14] stands for this setting: individual patients, 20 mg/kg intravenous bolus over 5 minutes, 20 mg/kg.

Regarding `N=C(N)NCCC[C@H](N)C(=O)O` [arginine], the “increase of NO formation” value in data set [1] (normal controls) is on record as 68%. Moreover, in data set [1] (steady-state SCD patients, not overcome by higher doses), the “change in NO” value is given as “paradoxical decrease in NO”. Moreover, in data set [2], the pain scores result is listed as “lowered pain scores” and the parenteral opioid use entry is reported as “reducing parenteral opioid use”. In data set [3], the NO production entry was “did not increase NO production”.
In general, clearance refers to a measure of how efficiently the substance is removed, as volume per time. A higher clearance goes with a high capacity for elimination. As to `NC(=O)NCCCC(N)C(=O)O` (centres unmarked) [citrulline, 2-amino-5-(carbamoylamino)pentanoic acid], in [4] (setting [12]), the Krem came to 1.06 h⁻¹ and the V was determined as 0.50 L/kg. The “clearance (in words)” value in data set [4] (setting [13]) is “rapid clearance”. Also, the “mean peak level (plasma citrulline)” value in [4] (first cohort of four participants, intravenous bolus infusion of 20 mg/kg) is 259 µmol/L. In addition, the clearance in data set [4] (human, plasma, 20 mg/kg, Average of patients 1-4, 20 mg/kg intravenous bolus) was 8.67 mL/min/kg. In [4] (human, plasma, 20 mg/kg, individual patients, 20 mg/kg intravenous bolus over 5 minutes), the clearance was 11.7 mL/min/kg. Besides, the concentration at 4 h in [4] (human, plasma, 4 hours after the infusion, 20 mg/kg intravenous bolus, read-out: trough level (plasma citrulline)) was 20 to 40 µM. In data set [4] (setting [14]), the CL is 8.5 mL/min/kg and 6.83 mL/min/kg and 7.67 mL/min/kg; the Krem is 1.01 1/hr (2×) and 1.34 1/hr and 0.89 1/hr; the V was 0.70 L/kg and 0.38 L/kg and 0.46 L/kg (2×). Moreover, the other side effects result in data set [5] (20 mg/kg intravenous bolus, four participants) was “no other reported side effects”. Moreover, the safety and tolerability result in data set [5] (setting [13]) is “safe and well tolerated”. For the same compound, the “transient drop of diastolic blood pressure” value in data set [5] (one subject, within 30 minutes of study drug, no intervention needed) is over 20%. In [6], the “rise in arginine level (mean increment)” value was 182%. For the same compound, the “patients who met the target level of citrulline” value in [7] is 2 out of 3. Moreover, in [3], the NO production entry is given as “increased NO production” and the microcirculatory flow result was “improved microcirculatory flow”. For the same compound, the symptoms of well-being entry in data set [8] (ages 10-18) is on record as “dramatic improvements”. In [8], the plasma arginine levels result is reported as “raised plasma arginine levels”; the “total leukocyte and segmented neutrophil counts” value is “reductions in high total leukocyte and high segmented neutrophil counts toward or to within normal limits”. Moreover, the “circulating arginine concentrations versus oral arginine” value in data set [9] is recorded as “increases circulating arginine concentrations more than oral arginine”. Further, the “safety and plasma citrulline levels” value in data set [10] (intravenous citrulline (Barr 2007)) is “may be administered safely to increase and maintain plasma citrulline levels”. The “safety and plasma citrulline levels” value in [10] (oral citrulline (Smith 2006)) was “may be administered safely to increase and maintain plasma citrulline levels”.
For the compound `[N]=O` [iNO, nitric oxide], the “effect on time-to-resolution of vaso-occlusive crisis” value in data set [11] is listed as “no effect”.

Values taken from patent publication US12329732B2, “Citrulline for treatment of sickle cell crisis” (Vanderbilt University, priority 2017, dated 2025).
